Assay results reported in the supplement of paper PMC11997997.

Experiments:
[1] = system: murine bone marrow-derived macrophages; test: area under cytotoxicity dose-response curve (AUC (% cytotoxicity x dose, relative)); higher = more cytotoxic; details: duration: 6 days; dose range: 0.13-80 uM, 8 points
In short: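 An 8-point, 2.5-fold dilution series (final 80–0.13 μM) was applied for 6 days at 37 °C in 5% CO2 to primary murine bone marrow-derived macrophages plated in opaque 384-well plates. Promega's CellTiter-Glo luminescence assay measured viability, and percent cytotoxicity was normalised against vehicle and positive control wells. The area under the dose–response curve, worked out in GraphPad Prism version 10, is the reported cytotoxicity measure.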

[2] = system: Mycobacterium tuberculosis CDC1551 (intracellular, in murine BMDM); test: area under intracellular growth-inhibition dose-response curve (AUC (% inhibition x dose, relative)); higher = more potent; details: duration: 6 days; dose range: 0.13-80 uM, 8 points
In short: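 Each value is an area under the growth-inhibition dose–response curve, calculated with GraphPad Prism. Infected primary murine bone marrow-derived macrophages, carrying luciferase-expressing M. tuberculosis CDC1551 at multiplicity of infection 1, were treated for 6 days with an 8-dose, 2.5-fold series (final 80–0.13 μM) in 384-well opaque plates. Readout was by Bright-Glo luciferin assay, normalised to a reference drug control and the lowest-concentration wells.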

SMILES	area under cytotoxicity dose-response curve [1]	area under intracellular growth-inhibition dose-response curve [2]
COc1cc(/C=N/NC(N)=S)ccc1OCC(=O)Nc1ccc(C)c(C)c1	10.1	242
CCOC(=O)c1cc(-c2ccc(N3CCOCC3)cc2)nn1-c1ccc(F)cc1F	22.7	15.8
COc1sc(SC)cc1/C=N/NC(=O)c1ccncc1	26.8	176
COc1ccc(-c2ncn(CCC#N)c2[N+](=O)[O-])cc1	8.24	119
Cc1nnc(SCC2=C(C(=O)O)N3C(=O)C(NC(=O)Cn4nc(C(F)F)cc4C)C3SC2)s1 (stereo unspecified)	< 0	215
CC(=O)Nc1cccc(/C(C)=N/NC(N)=S)c1	< 0	235
CC(=O)O[C@H]1C[C@@]2(C)[C@@H](C[C@@H](O)[C@H]3[C@@]4(C)CC[C@@H](O)[C@@H](C)[C@@H]4CC[C@@]32C)/C1=C(\CCC=C(C)C)C(=O)O	< 0	206
CCOc1ccc(OCCCC(=O)NNC(=O)c2ccncc2)cc1	< 0	272
O=C(NN=C1CCCCCCCCCCC1)c1ccncc1	73.9	262
C/C(Cn1cnc([N+](=O)[O-])n1)=N\NC(=O)c1ccncc1	39.4	249
c1ccc(-c2noc(CC3CCCCC3)n2)nc1	5.13	200
CCCCC(=O)NCc1ccc(F)cc1	< 0	199
CC(=O)NC(=S)Nc1ccc(NC(=O)COc2ccc(Cl)cc2Cl)cc1	38.6	220
CCCN(Cc1nnc(-c2ccccc2Cl)o1)C(=O)c1cc([N+](=O)[O-])cc([N+](=O)[O-])c1	38.7	84
O=c1cc(-c2c(F)c(F)c(F)c(F)c2F)oc2ccccc12	11.4	122
O=C(COc1ccc(/C=N/NC(=O)c2ccncc2)cc1)Nc1ccccc1	34.4	266
C/C(CC(C)(C)C1CCCCC1)=N\NC(N)=S	119	238
CCNC(=S)N/N=C(\C)c1ccc(N2CCOCC2)cc1	43.5	164
Cl.O=C(CCN1CCN(CCO)CC1)N1c2ccccc2Sc2ccc(C(F)(F)F)cc21	75	61.3
O=[N+]([O-])c1[c][c]c(Sc2[c][c][c][c][n+]2[O-])c2nonc12	119	48.7
O=[N+]([O-])c1ccc(CN2CCN(c3ccc(Cl)cc3)CC2)o1	33.9	222
O=C(N/N=C\c1ccc([N+](=O)[O-])o1)C1COc2ccccc2O1 (stereo unspecified)	10.7	203
O=C(CSc1ccc(Cl)cc1)NNC(=O)c1ccncc1	107	241
Cc1ccc(S(=O)(=O)N2CCN(C(=O)c3cc(S(=O)(=O)N4CCOCC4)c(Cl)cc3Cl)CC2)cc1	21.2	75.1

SMILES	area under cytotoxicity dose-response curve [1]	area under intracellular growth-inhibition dose-response curve [2]
O=C(CC12CC3CC(CC(C3)C1)C2)N1CCCC1	75.6	216
Cc1cc(/C=N/NC(N)=S)c(C)n1-c1ccc(Br)cc1	< 0	257
O=C(CCC1CCCCC1)NCc1ccccn1	3	222
CC1CCCN(C(=O)C2CCC(CNc3c(N4CCCCC4)c(=O)c3=O)CC2)C1 (stereo unspecified)	8.75	91.7
Cc1cc(NS(=O)(=O)c2ccc(N)cc2)no1	28.4	57.8
CN(C)S(=O)(=O)c1ccc(C(=O)OCC(=O)Nc2ccc3c(c2)OCO3)cc1	38.4	11.2
CCOc1ccc(NC(=S)Nc2ccc(OC)cc2)cc1	13	233
Cc1ccc(C)c(NC(=O)CN2C(=O)NC(C)(c3ccc4c(c3)OCCO4)C2=O)c1 (stereo unspecified)	4.48	44.8
CN(C)c1ccc(O)c2c1CC1CC3[C@@H](N(C)C)C(=O)C(C(N)=O)=C(O)[C@]3(O)C(=O)C1=C2O.Cl (stereo partly specified)	112	246
C/C(=N\NC(N)=S)c1ccncc1	113	138
Cc1nnc(NCc2cccc(Cl)c2)c2ccccc12	128	211
Cc1ccc(/C=N/NC(=O)c2ccncc2)o1	78.6	213
O=C(CC1CCCCC1)NCc1ccccn1	3.91	222
O=C(N/N=C/c1ccccn1)c1ccncc1	1.91	262
CC1CN(c2ccc(NC(=S)Nc3ccc(N4CC(C)OC(C)C4)cc3)cc2)CC(C)O1 (stereo unspecified)	17.3	186
C#CCSc1nnc(-c2ccc([N+](=O)[O-])cc2)o1	< 0	246
CCC[C@@H](CN1CCC[C@H]1CN1C(N)=NC[C@@H]1Cc1ccccc1)N1C[C@@H](Cc2ccccc2)N(CCCC2CCCC2)C1=N	52.7	200
O=C(NCC1CCCO1)c1csc2c1CCCCC2 (stereo unspecified)	19.4	143
CC(C)c1ccc(CNc2nc3nc4c(c(O)n3n2)CCC4)cc1	< 0	163
CN(CC(=O)Nc1ccc(OC(F)(F)F)cc1)C(=O)/C=C/c1cc2c(cc1[N+](=O)[O-])OCO2	< 0	135
NC(=S)N/N=C/c1ccc(OC(=O)c2cccnc2)cc1	48	262
CC(C)/N=c1\cc2n(-c3ccc(Cl)cc3)c3ccccc3nc-2cc1Nc1ccc(Cl)cc1	73.5	208
CCN(CC)c1ccc(NC(=S)Nc2ccc(F)cc2)cc1	90.6	106
O=C(NCc1ccco1)c1csc2c1CCCCC2	55.5	212
